“And” between values parts separate entries of the source, which are not always exact repeats. Identical values can stand only once. “Also recorded” adds a separate entry of the source. Non-standard residues stand in square brackets, D forms with d. Residues, ends and D or L forms follow the SMILES beside them. Nva = CCC[C@H](N)C(=O)O
Tests used:
[1] = tested on: αSMA expression in LX2 cells; assay: Western blotting for αSMA expression in LX2; assay type: cell-based, human; settings: LX2, 200 μM peptide, 48 h; western blot; in words
Experimental: Hepatoma carcinoma cell line HepG2 and human hepatic activated stellate cell line LX2 used in this study were purchased from Type Culture Collection of the Chinese Academy of Sciences (Shanghai, China). Cells were cultured in Dulbecco’s modified Eagle’s medium (DMEM) with 10% fetal bovine serum (FBS), supplemented with 1% penicillin–streptomycin (ThermoFisher Scientific, USA) at 37 °C in a humidified atmosphere of 5% CO2. In PA (Sigma, USA) induced lipid accumulation cell model, HepG2 cells were seeded into a 6-well plate at 5E5 cells per well. 0.25 mM PA and/or 200 μM candidate peptides were co-incubated with cells for 24 h. Then Oil Red O staining was performed to evaluate the accumulation of lipid droplets. BSA (Sigma, USA) was used in this experiment as the negative control. […]
Total protein was isolated from cells or liver samples using RIPA lysis buffer (50.0 mM Tris-HCl (pH = 8.0), 150.0 mM NaCl, 0.02% NaN3, 0.1% SDS, 1% NP-40, 0.5% deoxysodium cholate, 1 mM EDTA, […]). The protein concentration was quantified with BCA kit (Pierce, ThermoFisher Scientific, USA). […] After incubation with the secondary antibody, proteins were detected by enhanced chemiluminescence (Glarity^TM Western ECL Substrate, Bio-Rad, USA) and the signals were recorded and quantified with Tanon-Image Software (Shanghai, China). […]

[2] = molecular target: T1, AdipoR1 (Homo sapiens, UniProt Q96A54); assay: Competition binding assay vs globular adiponectin (western blot), AdipoR1 overexpression cells; settings: JT003 4 h, then 50 μg ml−1 gAd155–161 4 h, in words
T1 construct: His; host or cells: HEK293
T1 sequence (Q96A54 1-375): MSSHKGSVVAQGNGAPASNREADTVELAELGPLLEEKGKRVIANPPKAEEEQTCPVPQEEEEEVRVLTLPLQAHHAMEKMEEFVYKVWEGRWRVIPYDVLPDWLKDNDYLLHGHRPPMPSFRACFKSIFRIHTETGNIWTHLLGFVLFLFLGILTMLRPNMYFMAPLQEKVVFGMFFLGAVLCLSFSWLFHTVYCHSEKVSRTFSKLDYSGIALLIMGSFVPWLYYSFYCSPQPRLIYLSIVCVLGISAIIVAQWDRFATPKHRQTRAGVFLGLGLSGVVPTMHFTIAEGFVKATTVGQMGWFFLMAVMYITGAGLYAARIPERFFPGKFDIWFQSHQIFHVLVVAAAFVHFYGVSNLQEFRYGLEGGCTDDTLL
Experimental: (§1) Different concentration of JT003 were incubated with AdipoR1 or AdipoR2 overexpression HEK293 cell line for 4 h. After that, 50 μg ml^−1 gAd155–161 were added for another 4 h incubation. The binding of gAd155–161 to the cells were measured via western blot assay.

[3] = molecular target: T2, AdipoR2 (Homo sapiens, UniProt Q86V24); assay: Competition binding assay vs globular adiponectin (western blot), AdipoR2 overexpression cells; settings: JT003 4 h, then 50 μg ml−1 gAd155–161 4 h, in words
T2 construct: His; host or cells: HEK293
T2 sequence (Q86V24 1-386): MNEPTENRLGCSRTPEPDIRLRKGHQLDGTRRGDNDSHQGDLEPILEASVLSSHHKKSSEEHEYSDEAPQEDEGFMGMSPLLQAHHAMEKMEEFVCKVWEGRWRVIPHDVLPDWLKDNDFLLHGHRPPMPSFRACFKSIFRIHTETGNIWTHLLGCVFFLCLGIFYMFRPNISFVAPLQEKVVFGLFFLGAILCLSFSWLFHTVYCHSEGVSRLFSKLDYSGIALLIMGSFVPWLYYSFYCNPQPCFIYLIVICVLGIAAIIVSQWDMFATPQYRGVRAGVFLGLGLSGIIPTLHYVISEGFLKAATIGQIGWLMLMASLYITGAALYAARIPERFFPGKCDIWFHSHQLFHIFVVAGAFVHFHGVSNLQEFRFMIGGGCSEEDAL
Experimental: as §1

[4] = tested on: HFD induced NASH mice; assay: HFD mice: liver histology (HE, PAS, Oil Red O); assay type: in vivo, mouse; settings: JT003 500 μg kg−1 i.p. daily 4 weeks, in words
Experimental: The NASH model was conducted with feeding a HFD for 16 weeks combine with a MCD diet (Methionine/Choline Deficient Diet, Medicience, China) in the last 4 weeks. Mice administered a MCS diet (Methionine/Choline Sufficient Diet, Medicience, China) serves as control group. NAFLD or NASH mice treated with JT003 for 4 weeks were used to evaluate the pharmacological effects (n = 6; 500 μg kg^−1; daily intraperitoneal injection). Food and water were provided ad libitum. The body weight of mice was examined every 3 days. The diet was renewed every 7 days. JT003 was diluted in PBS.
The levels of TG and HYP in liver tissue were detected with certain commercial assay kit (Nanjing Jiancheng Bioengineering Institute, China). Formalin-fixed liver tissues were embedded in paraffin, sectioned into 5 μm slices. After deparaffinization and rehydration of the section slices, they were stained with Haematoxylin and Eosin or Periodic Acid-Schiff. For the detection of liver collagen content, Sirius Red staining for collagen was performed. OCT-embedded frozen liver tissues were sectioned into 12 μm slices, and Oil Red O staining was performed. The cryostat-cut slices were stained with freshly prepared Oil Red O working solution for 7 min Two independent experimenters who were blinded to the treatment evaluated the staining slides and analyzed the score for steatosis, glucogen accumulation and collagen proliferation area.

[5] = tested on: CCl4 induced liver fibrosis mice; assay: CCl4 mice: serum ALT, AST and liver HYP; assay type: in vivo, mouse; settings: Figure 5b; CCl4 + JT003 group; single animals, n = 5

For CCC[C@H](NC(=O)[C@@H]1CCCN1)C(=O)N[C@@H](CC(C)C)C(=O)N[C@@H](Cc1ccc(O)cc1)C(=O)N[C@@H](Cc1ccc(O)cc1)C(=O)N[C@@H](Cc1ccccc1)C(=O)N[C@@H](C)C(N)=O [JT003] (H-P[Nva]LYYFA-NH2), the “expression level of αSMA in LX2 cells” value [1] was “significantly decrease; also recorded: showed the best performance in inhibiting fibroblast formation”, the “competitive binding to globular adiponectin, AdipoR1 overexpression cells” value [2] was “more JT003 cause less globular adiponectin binding” and the “competitive binding to globular adiponectin, AdipoR2 overexpression cells” value [3] was “more JT003 cause less globular adiponectin binding”. For the same molecule, the “glycogen over accumulation (PAS staining and hepatocyte glycogen analysis)” value [4] was “largely eliminated”, the “lipid droplets in the liver (Oil red o staining)” value [4] was “remarkably decreased lipid droplets” and the “steatosis and inflammation area (HE staining)” value [4] was “decreased”. The “alt Enzymatic Activity” value [5] was 182.294 U/L and 119.931 U/L and 31.0646 U/L and 95.3544 U/L and 50.0405 U/L.

Source: PMC7669869, “AdipoR1/AdipoR2 dual agonist recovers nonalcoholic steatohepatitis and related fibrosis via endoplasmic reticulum-mitochondria axis” (Nature Communications, 2020)
